Experimental data from PubChem BioAssay (NCI).
Values joined by “and” are separate entries in the source; they are usually repeats but may differ in a detail not shown here. Identical values can stand only once.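 Dose response: 5 concentrations. Exposure: 48 h. Format: 96-well plates. Endpoint: linear interpolation; highest concentration if not reached. GI50: concentration for 50% inhibition of growth. TGI is the concentration that stops growth completely.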

Each compound was assayed on MDA-MB-468 breast (assay: NCI-60 cell line screen, 48 h).

Question: What does the source list for O=S(=O)(NCCCNc1nccc(-c2c(-c3ccc(O)cc3)nc3sccn23)n1)c1ccc(F)cc1?
Answer: GI50: 2 µM; TGI: 9.43 µM

Question: CCN(CC)c1ccc(/C=N/NC(=O)CSc2nc3ccccc3c(=O)n2CCc2ccc(S(N)(=O)=O)cc2)c(O)c1 was tested. Which GI50 did it give?
Answer: Its GI50 is 2.12 µM.

Question: And the TGI?
Answer: Its TGI is greater than 100 µM.

Question: With NS(=O)(=O)c1ccc(Nc2cc(-c3cccc(O)c3)[nH]n2)cc1 as the compound, how does the GI50 read?
Answer: Its GI50 is 9.58 µM.

Question: What about the TGI of the same compound?
Answer: Its TGI is greater than 25 µM.

Question: For COc1cc(OC)c(S(N)(=O)=O)cc1C(=O)/C=C/c1ccccc1, which GI50 is on record?
Answer: Its GI50 is 1.2 µM.

Question: And the TGI?
Answer: Its TGI is 9.28 µM.

Question: CC(C)(C)c1ccc(S(=O)(=O)Oc2ccc3c4c(c(=O)oc3c2)CCCCC4)cc1 was tested. Which GI50 did it give?
Answer: Its GI50 is 3.41 µM.

Question: What about the TGI of the same compound?
Answer: Its TGI is greater than 100 µM.

Question: Which results are given for CCCCCCNC(=O)Oc1ccc(/C(=C(/C)c2ccc(OC)cc2)c2ccc(OCCN3CCCCCC3)cc2)cc1?
Answer: GI50: 2.04 µM; TGI: 4.76 µM

Question: O=c1c2c(=NCCN3CCCC3)cc3c(=O)n(CCCN4CCOCC4)c(=O)c4c(-c5ccc(CN6CCCC6)cc5)cc(c(O)n1CCCN1CCOCC1)c2c4-3 was tested. Which GI50 did it give?
Answer: Its GI50 is 0.0324 µM.

Question: What about the TGI of the same compound?
Answer: Its TGI is 0.119 µM.

Question: C/C(=N\NC(=S)N1CCCCC1)c1ccccn1 was tested. Which GI50 did it give?
Answer: Its GI50 is less than 0.01 µM.

Question: And the TGI?
Answer: Its TGI is 0.135 µM.

Question: Which GI50 does the source give for O=C(Nc1ccc2[nH]nc(-c3ccncc3)c2c1)[C@@H]1CCN(CC(=O)N2CCN(c3ccc(-c4ncccn4)cc3)CC2)C1 here?
Answer: The GI50 was greater than 100 µM.

Question: And the TGI?
Answer: The TGI was greater than 100 µM.

Question: With COc1ccc(C2=N[C@@H](Cc3ccccc3)C(=O)Nc3ccsc32)cc1 as the compound, how does the GI50 read?
Answer: The GI50 was 1.76 µM.

Question: And the TGI?
Answer: Its TGI is 4.58 µM.

Question: What does the source list for CCSCC1CC(O)(c2ccccc2)CC(c2ccc(F)cc2)O1 (stereo not drawn)?
Answer: GI50: 2.04 µM; TGI: 6.05 µM

Question: With Cc1cccc(N(C)C(=O)[C@@H]2[C@H](O)CCN2c2nc(C)cc(C(F)(F)F)c2C#N)c1 as the compound, how does the GI50 read?
Answer: Its GI50 is 17.3 µM.

Question: What about the TGI of the same compound?
Answer: The TGI was 51.3 µM.

Question: CC(=O)O[C@H]1C(=O)[C@@]2(C)C(C(OC(=O)c3ccccc3)[C@]3(O)C[C@H](OC(=O)C(OC(=O)CCCC(=O)NCCCN(C)C)C(NC(=O)c4ccccc4)c4ccccc4)C(C)=C1C3(C)C)C1(OC(C)=O)COC1C[C@@H]2O (stereo partly drawn) was tested. Which GI50 did it give?
Answer: The GI50 was less than 0.01 µM.

Question: What about the TGI of the same compound?
Answer: The TGI was 10.4 µM.

Question: With CC(=O)c1ccc2c(c1)c1cc(C(C)=O)ccc1n2CCNC(C)C as the compound, how does the GI50 read?
Answer: Its GI50 is 0.33 µM.

Question: What about the TGI of the same compound?
Answer: Its TGI is 1.74 µM.

Question: Which results are given for Fc1cc2[nH]ncc2c2c3c(c(-c4cn[nH]c4C(F)(F)F)nc12)CCCC3?
Answer: GI50: 1.58 µM; TGI: 4.35 µM

Question: Which GI50 does the source give for C=C1CC[C@@H]2[C@](C)(COC(C)=O)[C@H](OC(C)=O)CC[C@@]2(C)[C@@H]1CC(Nc1ccc(S(=O)(=O)NC(C)=O)cc1)C1=CCOC1=O (stereo partly drawn) here?
Answer: The GI50 was 1.53 µM.

Question: And the TGI?
Answer: The TGI was 3.13 µM.

Question: Cc1nc([P+](c2ccccc2)(c2ccccc2)c2ccccc2)c(Sc2sc(-c3ccccc3)nc2[P+](c2ccccc2)(c2ccccc2)c2ccccc2)o1 was tested. Which GI50 did it give?
Answer: Its GI50 is 0.417 µM.

Question: And the TGI?
Answer: Its TGI is 3.28 µM.

Question: Which GI50 does the source give for COc1cc(/C=C\c2cc(OC)c(OC)c(OC)c2)cc(N/C=C\C(=O)c2ccc(OC(F)(F)F)cc2)c1OC here?
Answer: Its GI50 is 3.16 µM.

Question: What about the TGI of the same compound?
Answer: The TGI was greater than 100 µM.

Question: Which results are given for Cc1nc2ccc(Nc3nc(Cl)nc(N4CCOCC4)n3)cc2n1Cc1ccccc1?
Answer: GI50: 2.21 µM; TGI: 7.09 µM

Question: With CCOC(=O)c1cc(C(=O)c2cc(OC)c(OC)c(OC)c2)n2ncccc12 as the compound, how does the GI50 read?
Answer: Its GI50 is 0.248 µM.

Question: What about the TGI of the same compound?
Answer: The TGI was 32.2 µM.

Question: For CS(=O)(=O)Nc1cncc(-c2ccc3ncnc(Nc4ccc(F)c(Cl)c4)c3c2)c1, which GI50 is on record?
Answer: The GI50 was 0.181 µM.

Question: And the TGI?
Answer: The TGI was 0.936 µM.

Question: With CC(=O)Nc1ccc2c(c1)C(c1ccccc1Cl)=Nc1c(n[nH]c1C)N2 as the compound, how does the GI50 read?
Answer: Its GI50 is 1.63 µM.

Question: And the TGI?
Answer: The TGI was greater than 25 µM.

Question: CC(N)C(Cc1ccc(Cl)cc1)c1ccc(Cl)cc1 (stereo not drawn) was tested. Which GI50 did it give?
Answer: Its GI50 is 2.96 µM.

Question: And the TGI?
Answer: The TGI was 11.7 µM.

Question: N#Cc1c(-n2c(Br)c(Br)c3cc(Br)ccc32)[nH]c2c(Br)cc(Br)cc12 was tested. Which GI50 did it give?
Answer: The GI50 was 0.907 µM.

Question: And the TGI?
Answer: Its TGI is 3.34 µM.

Question: With Cc1cc(O)c(=O)cc2c1C[C@H]1CC(C)(C)/C=C/C[C@]3(C)Oc4cc(=O)c(O)cc(C)c4C[C@H]3C[C@H](O)[C@@]1(C)O2 as the compound, how does the GI50 read?
Answer: Its GI50 is < 0.0152 µM and 0.00703 µM.

Question: What about the TGI of the same compound?
Answer: Its TGI is 0.243 µM and 0.106 µM.

Question: With COC[C@@H](N=C1NC(=O)/C(=C/c2ccc3ncccc3c2)S1)c1ccccc1 as the compound, how does the GI50 read?
Answer: The GI50 was 4.51 µM.

Question: And the TGI?
Answer: Its TGI is 17.6 µM.

Question: For Cc1cc2nc3c4cc(O)ccc4n(CCN(C)C)c3nc2cc1C, which GI50 is on record?
Answer: The GI50 was 0.816 µM.

Question: And the TGI?
Answer: Its TGI is 2.78 µM.

Question: Which results are given for Fc1cccc(COc2ccc(Nc3ncnc4sc(-c5cccs5)cc34)cc2Cl)c1?
Answer: GI50: 0.201 µM; TGI: 2.31 µM

Question: Which GI50 does the source give for CCOC(=O)c1ccc(NC(=O)Nc2nncs2)cc1 here?
Answer: Its GI50 is 0.176 µM.

Question: What about the TGI of the same compound?
Answer: The TGI was 14.8 µM.

Question: Which GI50 does the source give for COc1cc(C2Cc3ncccc3-c3[nH]c(=O)c4cccnc4c32)cc(OC)c1OC (stereo not drawn) here?
Answer: Its GI50 is 0.34 µM.

Question: For COc1ccc(C2CC(c3cccc(Nc4ccnc5cc(Cl)ccc45)c3)=NN2C=O)cc1 (stereo not drawn), which GI50 is on record?
Answer: Its GI50 is 0.239 µM.

Question: What about the TGI of the same compound?
Answer: Its TGI is 0.836 µM.

Question: With CN(c1ncccc1CNc1nc(Nc2ccc3c(c2)CC(=O)N3)ncc1C(F)(F)F)S(C)(=O)=O as the compound, how does the GI50 read?
Answer: The GI50 was 1.83 µM and 1.62 µM.

Question: And the TGI?
Answer: The TGI was 4.04 µM and 4.84 µM.

Question: Which results are given for CCN(Cc1ccc(C)cc1)c1ccc(CO)c(Cl)c1?
Answer: GI50: 0.0169 µM; TGI: 0.0445 µM

Question: Which GI50 does the source give for C#Cc1nc(/C=C/C(=O)c2nccn2C)cs1 here?
Answer: Its GI50 is 0.47 µM.

Question: What about the TGI of the same compound?
Answer: Its TGI is 1.47 µM.

Question: With OCCN1CCN(CCCN2c3ccccc3Sc3ccc(Cl)cc32)CC1 as the compound, how does the GI50 read?
Answer: The GI50 was 1.27 µM.

Question: What about the TGI of the same compound?
Answer: Its TGI is 2.7 µM.

Question: For O=C(Cc1ccc(/C=C/C(=O)c2ncc[nH]2)cc1)Nc1ccc(F)cc1, which GI50 is on record?
Answer: Its GI50 is 0.974 µM.

Question: What about the TGI of the same compound?
Answer: The TGI was 3.14 µM.

Question: How did the GI50 turn out when O=Nc1ccc(O)c(=O)cc1 was run?
Answer: The GI50 was 0.739 µM.

Question: And the TGI?
Answer: Its TGI is 2.44 µM.

Question: How did the GI50 turn out when Nc1nccc(-c2c(-c3ccc(F)cc3)ncn2C2CCNCC2)n1 was run?
Answer: Its GI50 is 0.649 µM and 2.52 µM.

Question: What about the TGI of the same compound?
Answer: The TGI was > 10.8 µM and 11.5 µM.

Question: Which results are given for CCC(C)[C@H]1O[C@]2(CC[C@@H]1C)C[C@@H]1C[C@@H](C/C=C(\C)[C@@H](OC3C[C@H](OC)C(O[C@H]4C[C@H](OC)[C@@H](O)[C@H](C)O4)[C@H](C)O3)[C@@H](C)/C=C/C=C3\CO[C@@H]4[C@H](O)C(C)=C[C@@H](C(=O)O1)[C@]34O)O2 (stereo partly drawn)?
Answer: GI50: 1.6 µM; TGI: 3.4 µM

Question: How did the GI50 turn out when COc1ccc(/C=C/C(=O)c2cc(OC)c(OC)c(OC)c2)cc1OCC(=O)Nc1nc2ccc(OC(F)(F)F)cc2s1 was run?
Answer: The GI50 was 3.52 µM.

Question: And the TGI?
Answer: The TGI was 21.2 µM.

Question: CCN1C(=S)N(c2ccccc2)C2NC(=S)N(/N=C/C=C/c3ccccc3OC)C21 (stereo not drawn) was tested. Which GI50 did it give?
Answer: Its GI50 is 0.292 µM.

Question: And the TGI?
Answer: The TGI was 1.06 µM.

Question: O=C(CCCCCCNC(=O)C(O)(O)C(F)(F)F)Nc1ccc(Cl)cc1 was tested. Which GI50 did it give?
Answer: The GI50 was 1.38 µM.

Question: What about the TGI of the same compound?
Answer: The TGI was 22.2 µM.
